Reference: patent publication US6730334B2, “Multi-arm block copolymers as drug delivery vehicles” (Nektar Therapeutics AL, Corporation, priority 2001, dated 2004)
Values after ≈ are worked out from the molar mass of the structure shown.

Legend:
[1] = Solubility of drugs in plain buffer and in PPO-PEG multi-arm block copolymer 10050 formulation; assay type: physicochemical; conditions: thermodynamic from solid; for solubility: aqueous buffer, phosphate buffer, 0.1 M, pH 7.4, read-out: Solubility of Drug in Plain Buffer; for solubility at 2 h: aqueous with cosolvent or surfactant or cyclodextrin, 50 mg PPO-PEG block copolymer 10050/drug formulation, 10 wt. % drug loading, in 1 ml phosphate buffer 0.1 M pH 7.4, 0.2 μm filtered
Experimental: After two hours of mixing, the mixture was filtered through 0.2 μm syringe filter. The drug concentration in the filtrate was determined by HPLC or UV using a standard curve.

[2] = drug-loaded 8-arm-PCL-PEG26kDa, phosphate buffer 0.1 M pH 7.0, 37° C., rp-HPLC
Experimental: At timed intervals, 10 μl of sample was withdrawn and diluted with phosphate buffer (0.1 M, pH 7.0). The solution was filtered through 0.2 μm syringe filter.
At timed intervals, 10 μl of sample was withdrawn and diluted with phosphate buffer (0.1 M, pH 7.0). The solution was filtered through 0.2 μm syringe filter. The filtrate was analyzed by rp-HPLC for paclitaxel concentration.

[3] = Drug concentration by HPLC in drug-loaded 8-arm-PCL-PEG26kDa solution; assay type: physicochemical; conditions: 6 mg drug + 60 mg 8-arm-PCL-PEG26kDa (1/10) in 1 ml phosphate buffer 0.1 M pH 7.0, 0.2 μm filtered
Experimental: (§1) The solution was dried under argon. The dried solid was heated at 55° C. for two hours under argon. The melt was then cooled to room temperature, placed under vacuum overnight, and reduced to small particles. To the particles was added 1 ml of phosphate buffer (0.1 M, pH 7.0), and the resulting mixture was filtered through 0.2 μm syringe filter.
as §1, with “temperature and” for “temperature,”, “7.0). The” for “7.0), and the”

## Cn1cc(C2=C(c3cn(C)c4cc([N+](=O)[O-])ccc34)C(=O)NC2=O)c2ccc([N+](=O)[O-])cc21 [MNIPD, 3,4-di-[1-methyl 6-nitro-3-indolyl]-1H-pyrrole-2,5-dione]
[1]
  solubility: < 0.5 µg/mL
  solubility at 2 h: 2600 µg/mL (≈ 5.84 mM)

## COc1ccc2c(c1)c(CC(=O)O)c(C)n2C(=O)c1ccc(Cl)cc1 [Indomethacin, indomethacin]
[1]
  solubility: 88 µg/mL (≈ 0.246 mM)
  solubility at 2 h: 4000 µg/mL (≈ 11.2 mM)

## CCCC(=O)OCOC(=O)C(C)(C)C [Pivaloyloxymethyl butyrate, pivaloyloxymethyl butyrate]
[1]
  solubility at 2 h: 12000 µg/mL (≈ 59.3 mM)

## CC(=O)O[C@H]1C(=O)[C@@]2(C)[C@H]([C@H](OC(=O)c3ccccc3)[C@]3(O)C[C@H](OC(=O)[C@H](O)[C@@H](NC(=O)c4ccccc4)c4ccccc4)C(C)=C1C3(C)C)[C@]1(OC(C)=O)CO[C@@H]1C[C@@H]2O [Paclitaxel, paclitaxel]
[2]
  Soluble drug concentration in solution vs. time (FIGS. 8, 9): retain the paclitaxel in solution for an extended period of time
[1]
  solubility: < 1 µg/mL
  solubility at 2 h: 2000 µg/mL (≈ 2.34 mM)
[3]
  Drug concentration by HPLC: above 4.5 mg/ml
